Laboratory results from PubChem BioAssay (NCI).
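Here, GI50 denotes the concentration required for 50% inhibition of growth. TGI: concentration producing complete growth inhibition.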

What was measured:
Assay in all cases: NCI-60 cell line screen, 384-well format; in the data active means GI50 below about 0.43 µM; inactive means the rest
786-0 renal = tested on: 786-0 renal
A498 renal = tested on: A498 renal
A549 NSCLC = tested on: A549 NSCLC
ACHN renal = tested on: ACHN renal
CAKI-1 renal = tested on: CAKI-1 renal
CCRF-CEM leukemia = tested on: CCRF-CEM leukemia
COLO 205 colon = tested on: COLO 205 colon
DU-145 prostate = tested on: DU-145 prostate
HCC-2998 colon = tested on: HCC-2998 colon
HCT-116 colon = tested on: HCT-116 colon
HCT-15 colon = tested on: HCT-15 colon
HL-60(TB) leukemia = tested on: HL-60(TB) leukemia
HOP-62 NSCLC = tested on: HOP-62 NSCLC
HOP-92 NSCLC = tested on: HOP-92 NSCLC
HT29 colon = tested on: HT29 colon
IGROV1 ovarian = tested on: IGROV1 ovarian
K-562 leukemia = tested on: K-562 leukemia
KM12 colon = tested on: KM12 colon
LOX IMVI melanoma = tested on: LOX IMVI melanoma
M14 melanoma = tested on: M14 melanoma
MALME-3M melanoma = tested on: MALME-3M melanoma
MCF7 breast = tested on: MCF7 breast
MDA-MB-435 melanoma = tested on: MDA-MB-435 melanoma
MDA-MB-468 breast = tested on: MDA-MB-468 breast
MOLT-4 leukemia = tested on: MOLT-4 leukemia
NCI-H226 lung = tested on: NCI-H226 lung
NCI-H23 lung = tested on: NCI-H23 lung
NCI-H322M lung = tested on: NCI-H322M lung
NCI-H460 NSCLC = tested on: NCI-H460 NSCLC
NCI-H522 lung = tested on: NCI-H522 lung
NCI/ADR-RES ovarian = tested on: NCI/ADR-RES ovarian
OVCAR-3 ovarian = tested on: OVCAR-3 ovarian
OVCAR-4 ovarian = tested on: OVCAR-4 ovarian
OVCAR-5 ovarian = tested on: OVCAR-5 ovarian
OVCAR-8 ovarian = tested on: OVCAR-8 ovarian
PC-3 prostate = tested on: PC-3 prostate
RPMI-8226 leukemia = tested on: RPMI-8226 leukemia
RXF 393 renal = tested on: RXF 393 renal
SF-268 CNS = tested on: SF-268 CNS
SF-295 CNS = tested on: SF-295 CNS
SF-539 CNS = tested on: SF-539 CNS
SK-MEL-2 melanoma = tested on: SK-MEL-2 melanoma
SK-MEL-28 melanoma = tested on: SK-MEL-28 melanoma
SK-MEL-5 melanoma = tested on: SK-MEL-5 melanoma
SK-OV-3 ovarian = tested on: SK-OV-3 ovarian
SN12C renal = tested on: SN12C renal
SNB-19 CNS = tested on: SNB-19 CNS
SR leukemia = tested on: SR leukemia
SW-620 colon = tested on: SW-620 colon
T-47D breast = tested on: T-47D breast
TK-10 renal = tested on: TK-10 renal
U251 glioblastoma = tested on: U251 glioblastoma
UACC-257 melanoma = tested on: UACC-257 melanoma
UACC-62 melanoma = tested on: UACC-62 melanoma
UO-31 renal = tested on: UO-31 renal

CC[C@H](NC(=O)[C@H](C)NC)C(=O)N1C[C@@H](O)C[C@H]1Cc1c(-c2[nH]c3cc(F)ccc3c2C[C@@H]2C[C@H](O)CN2C(=O)[C@H](CC)NC(=O)[C@H](C)NC)[nH]c2cc(F)ccc12
69.3 µM: TGI (UACC-257 melanoma)
12.9 µM: TGI (NCI-H522 lung)
0.637 µM: TGI (MDA-MB-468 breast)
0.438 µM: TGI (SK-MEL-5 melanoma)
active: GI50 (CCRF-CEM leukemia) 0.028 µM | GI50 (HL-60(TB) leukemia) < 0.01 µM | GI50 (MALME-3M melanoma) 0.0143 µM | GI50 (MDA-MB-435 melanoma) 0.0982 µM | GI50 (MDA-MB-468 breast) < 0.01 µM | GI50 (NCI-H23 lung) 0.0611 µM | GI50 (NCI-H522 lung) 0.0544 µM | GI50 (OVCAR-4 ovarian) < 0.01 µM | GI50 (RPMI-8226 leukemia) 0.102 µM | GI50 (RXF 393 renal) < 0.01 µM | GI50 (SK-MEL-2 melanoma) < 0.01 µM | GI50 (SK-MEL-5 melanoma) 0.112 µM | GI50 (SK-OV-3 ovarian) < 0.01 µM
31.4 µM: TGI (MCF7 breast)
16.8 µM: TGI (CCRF-CEM leukemia)
< 0.01 µM: TGI (HL-60(TB) leukemia) | TGI (OVCAR-4 ovarian) | TGI (SK-MEL-2 melanoma) | TGI (SK-OV-3 ovarian)
39.8 µM: TGI (HT29 colon)
19.5 µM: TGI (SR leukemia)
35.9 µM: TGI (LOX IMVI melanoma)
0.896 µM: TGI (RPMI-8226 leukemia)
13.5 µM: TGI (HOP-92 NSCLC)
8.66 µM: TGI (HOP-62 NSCLC)
0.132 µM: TGI (MALME-3M melanoma)
90.6 µM: TGI (SF-268 CNS)
inactive: GI50 ([…]-0 renal) > 100 µM | GI50 (A498 renal) > 100 µM | GI50 (A549 NSCLC) > 100 µM | GI50 (ACHN renal) > 100 µM | GI50 (CAKI-1 renal) > 100 µM | GI50 (COLO 205 colon) 37 µM | GI50 (DU-145 prostate) 24.2 µM | GI50 (HCC-2998 colon) 16.6 µM | GI50 (HCT-116 colon) 35 µM | GI50 (HCT-15 colon) > 100 µM | GI50 (HOP-62 NSCLC) 0.555 µM | GI50 (HOP-92 NSCLC) 0.785 µM | GI50 (HT29 colon) 16.4 µM | GI50 (IGROV1 ovarian) > 100 µM | GI50 (K-562 leukemia) 21.9 µM | GI50 (KM12 colon) 23.8 µM | GI50 (LOX IMVI melanoma) 20.1 µM | GI50 (M14 melanoma) > 100 µM | GI50 (MCF7 breast) 15.1 µM | GI50 (MOLT-4 leukemia) 16.4 µM | GI50 (NCI-H226 lung) > 100 µM | GI50 (NCI-H322M lung) > 100 µM | GI50 (NCI-H460 NSCLC) 18 µM | GI50 (NCI/ADR-RES ovarian) > 100 µM | GI50 (OVCAR-3 ovarian) 17.9 µM | GI50 (OVCAR-5 ovarian) > 100 µM | GI50 (OVCAR-8 ovarian) 17 µM | GI50 (PC-3 prostate) 63 µM | GI50 (SF-268 CNS) 28.1 µM | GI50 (SF-295 CNS) 82 µM | GI50 (SF-539 CNS) 14.6 µM | GI50 (SK-MEL-28 melanoma) 86.3 µM | GI50 (SN12C renal) > 100 µM | GI50 (SNB-19 CNS) > 100 µM | GI50 (SR leukemia) 3.4 µM | GI50 (SW-620 colon) 57 µM | GI50 (T-47D breast) > 100 µM | GI50 (TK-10 renal) > 100 µM | GI50 (U251 glioblastoma) 18 µM | GI50 (UACC-257 melanoma) 20 µM | GI50 (UACC-62 melanoma) > 100 µM | GI50 (UO-31 renal) > 100 µM
35.7 µM: TGI (U251 glioblastoma)
30.2 µM: TGI (MOLT-4 leukemia)
74.5 µM: TGI (KM12 colon)
38.1 µM: TGI (NCI-H460 NSCLC)
32.5 µM: TGI (SF-539 CNS)
0.0829 µM: TGI (RXF 393 renal)
> 100 µM: TGI (786-0 renal) | TGI (A498 renal) | TGI (A549 NSCLC) | TGI (ACHN renal) | TGI (CAKI-1 renal) | TGI (COLO 205 colon) | TGI (DU-145 prostate) | TGI (HCT-116 colon) | TGI (HCT-15 colon) | TGI (IGROV1 ovarian) | TGI (M14 melanoma) | TGI (MDA-MB-435 melanoma) | TGI (NCI-H226 lung) | TGI (NCI-H322M lung) | TGI (NCI/ADR-RES ovarian) | TGI (OVCAR-3 ovarian) | TGI (OVCAR-5 ovarian) | TGI (OVCAR-8 ovarian) | TGI (PC-3 prostate) | TGI (SF-295 CNS) | TGI (SK-MEL-28 melanoma) | TGI (SN12C renal) | TGI (SNB-19 CNS) | TGI (SW-620 colon) | TGI (T-47D breast) | TGI (TK-10 renal) | TGI (UACC-62 melanoma) | TGI (UO-31 renal)
49.8 µM: TGI (HCC-2998 colon)
13.1 µM: TGI (NCI-H23 lung)
50.7 µM: TGI (K-562 leukemia)
